Source: the supplement of paper PMC11451515

Test system: NOMO1
Test: cell viability relative to DMSO control; higher = less cytotoxic
Details: 48 h
Outline: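 NOMO1 or SEM cells were plated at 500 cells/well and P12-Ichikawa cells at 1000 cells/well in 1536-well plates (5 μl), after each leukemia line had been adapted for at least four passages in each medium. Pin dosing delivered library compounds in DMSO at 11 threefold concentrations, 47 μM to 0.79 nM. CellTiter-Glo One luminescence was read after 48 h at 37°C. Viability is reported as a per-plate percentage of DMSO wells, with cell-free wells as background.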

[1] = HPLM + 10% dialyzed FBS, 0.000781 µM
[2] = HPLM + 10% dialyzed FBS, 0.00234 µM
[3] = HPLM + 10% dialyzed FBS, 0.00702 µM
[4] = HPLM + 10% dialyzed FBS, 0.0211 µM
[5] = HPLM + 10% dialyzed FBS, 0.0632 µM
[6] = HPLM + 10% dialyzed FBS, 0.19 µM
[7] = HPLM + 10% dialyzed FBS, 0.569 µM
[8] = HPLM + 10% dialyzed FBS, 1.71 µM
[9] = HPLM + 10% dialyzed FBS, 5.12 µM
[10] = HPLM + 10% dialyzed FBS, 15.4 µM
[11] = HPLM + 10% dialyzed FBS, 46.1 µM
[12] = RPMI 5 mM glucose + 10% FBS, 0.000781 µM
[13] = RPMI 5 mM glucose + 10% FBS, 0.00234 µM
[14] = RPMI 5 mM glucose + 10% FBS, 0.00702 µM
[15] = RPMI 5 mM glucose + 10% FBS, 0.0211 µM
[16] = RPMI 5 mM glucose + 10% FBS, 0.0632 µM
[17] = RPMI 5 mM glucose + 10% FBS, 0.19 µM
[18] = RPMI 5 mM glucose + 10% FBS, 0.569 µM
[19] = RPMI 5 mM glucose + 10% FBS, 1.71 µM
[20] = RPMI 5 mM glucose + 10% FBS, 5.12 µM
[21] = RPMI 5 mM glucose + 10% FBS, 15.4 µM
[22] = RPMI 5 mM glucose + 10% FBS, 46.1 µM
[23] = RPMI 5 mM glucose + 10% dialyzed FBS, 0.000781 µM
[24] = RPMI 5 mM glucose + 10% dialyzed FBS, 0.00234 µM
[25] = RPMI 5 mM glucose + 10% dialyzed FBS, 0.00702 µM
[26] = RPMI 5 mM glucose + 10% dialyzed FBS, 0.0211 µM
[27] = RPMI 5 mM glucose + 10% dialyzed FBS, 0.0632 µM
[28] = RPMI 5 mM glucose + 10% dialyzed FBS, 0.19 µM
[29] = RPMI 5 mM glucose + 10% dialyzed FBS, 0.569 µM
[30] = RPMI 5 mM glucose + 10% dialyzed FBS, 1.71 µM
[31] = RPMI 5 mM glucose + 10% dialyzed FBS, 5.12 µM
[32] = RPMI 5 mM glucose + 10% dialyzed FBS, 15.4 µM
[33] = RPMI 5 mM glucose + 10% dialyzed FBS, 46.1 µM

| SMILES | cell viability [1] [%] | cell viability [2] [%] | cell viability [3] [%] | cell viability [4] [%] | cell viability [5] [%] | cell viability [6] [%] | cell viability [7] [%] | cell viability [8] [%] | cell viability [9] [%] | cell viability [10] [%] | cell viability [11] [%] | cell viability [12] [%] | cell viability [13] [%] | cell viability [14] [%] | cell viability [15] [%] | cell viability [16] [%] | cell viability [17] [%] | cell viability [18] [%] | cell viability [19] [%] | cell viability [20] [%] | cell viability [21] [%] | cell viability [22] [%] | cell viability [23] [%] | cell viability [24] [%] | cell viability [25] [%] | cell viability [26] [%] | cell viability [27] [%] | cell viability [28] [%] | cell viability [29] [%] | cell viability [30] [%] | cell viability [31] [%] | cell viability [32] [%] | cell viability [33] [%] |
| --- | --- | --- | --- | --- | --- | --- | --- | --- | --- | --- | --- | --- | --- | --- | --- | --- | --- | --- | --- | --- | --- | --- | --- | --- | --- | --- | --- | --- | --- | --- | --- | --- | --- |
| COC1=CC=C(C(=C1)OC(C)C)C/2=N/[C@@H]([C@@H](N2C(=O)N3CCNC(=O)C3)C4=CC=C(Cl)C=C4)C5=CC=C(Cl)C=C5 | 119 | 115 | 114 | 120 | 119 | 112 | 124 | 105 | 96.1 | 29.3 | 5.33 | 105 | 118 | 106 | 100 | 103 | 103 | 104 | 103 | 95.9 | 78.1 | 7.76 | 100 | 102 | 104 | 105 | 102 | 114 | 106 | 103 | 90.8 | 70.3 | 17.7 |
| Cc1coc2c1C(=O)C(=O)c1c-2ccc2c1CCCC2(C)C | 111 | 98.8 | 126 | 118 | 107 | 105 | 92.9 | 95.5 | 82 | 105 | 96.8 | 89.8 | 98.7 | 96.8 | 104 | 116 | 103 | 99.9 | 83.5 | 83.5 | 95.1 | 90.8 | 97.4 | 104 | 95.7 | 98.9 | 103 | 88.8 | 88.4 | 87.5 | 88.4 | 92.5 | 93.1 |
| CC[C@@H]([C@H](C)O)n1ncn(-c2ccc(N3CCN(c4ccc(OCC5CO[C@@](Cn6cncn6)(c6ccc(F)cc6F)C5)cc4)CC3)cc2)c1=O (stereo partly specified) | 109 | 106 | 91.5 | 112 | 106 | 98.2 | 109 | 107 | 82.4 | 94.8 | 84.9 | 101 | 97.3 | 93.3 | 97 | 83.5 | 91.4 | 87.3 | 87 | 87.5 | 82.3 | 78.1 | 95.1 | 90.3 | 92.6 | 81.3 | 93.6 | 83.4 | 92.1 | 90.1 | 90.4 | 87.1 | 78.2 |
| NC(=O)c1ccc(N(C(N)=O)c2c(F)cccc2F)nc1-c1ccc(F)cc1F | 90 | 103 | 113 | 104 | 115 | 115 | 95.3 | 114 | 99.6 | 94.8 | 111 | 80.4 | 86.9 | 95.4 | 100 | 94.3 | 93.8 | 95.2 | 105 | 101 | 84.9 | 88 | 78.2 | 92.4 | 91.1 | 99.1 | 85.4 | 91.6 | 95 | 87.4 | 93.6 | 80.4 | 94.3 |
| COC(=O)c1ccc2c(c1)NC(=O)/C2=C(\Nc1ccc(N(C)C(=O)CN2CCN(C)CC2)cc1)c1ccccc1 | 92.1 | 92.1 | 106 | 99.5 | 106 | 91.3 | 89 | 103 | 87 | 91.9 | 84.4 | 98.3 | 96.8 | 96.5 | 97.4 | 89.3 | 110 | 109 | 97.8 | 92.6 | 83.4 | 83.1 | 92.7 | 93 | 94.7 | 90.8 | 93.5 | 95.2 | 85.3 | 88.9 | 88.5 | 96.8 | 98.5 |
| COc1cccc2c1C(=O)c1c(O)c3c(c(O)c1C2=O)C[C@@](O)(C(=O)CO)C[C@@H]3O[C@H]1C[C@H](N)[C@H](O)[C@H](C)O1 | 112 | 127 | 108 | 120 | 96.2 | 108 | 116 | 90.2 | 8.77 | 37.4 | 6.99 | 116 | 111 | 107 | 115 | 102 | 102 | 108 | 102 | 7.5 | 25.6 | 6.28 | 112 | 116 | 105 | 104 | 107 | 110 | 100 | 104 | 8.85 | 34.3 | 5.09 |
| CN1\C=N/C2=CC=C(NC3=CC(=CC=C3C)NC(=O)C4=CC(=CC=C4)C(C)(C)C#N)C=C2C1=O | 97.8 | 107 | 96.4 | 105 | 92.7 | 94.6 | 76.8 | 76.3 | 52.1 | 52.7 | 19.1 | 93.6 | 95.1 | 111 | 99 | 89.6 | 88.5 | 81.2 | 75.6 | 47.7 | 46.3 | 28.1 | 110 | 92.4 | 92.9 | 101 | 91.2 | 79.2 | 76.6 | 65.5 | 46.8 | 46.3 | 28.6 |
